Here are results for eleven compounds from patent US8524692B2, “Ocular compositions containing dioleoylphosphatidylglycerol and uses thereof” (Georgia Health Sciences University Research Institute, Inc., priority 2010, dated 2013).

Experiment [1] has as its system keratinocytes. Particulars: cited from earlier work.
In experiment [2] the test system is keratinocytes. Description: [3H]Thymidine incorporation into DNA in keratinocytes. The format is cell-based. The following applies: for promotion of proliferation in slowly dividing keratinocytes / inhibition of proliferation in rapidly dividing keratinocytes: 24 hours, PG species prepared by bath sonication, compared with egg phosphatidylglycerol. On the procedure:
Keratinocytes were treated for 24 hours with the indicated concentrations of different phosphatidylglycerol species, prepared via bath sonication of phospholipid in serum-free keratinocyte medium. [^3H]Thymidine incorporation into DNA was then determined in duplicate and averaged. All data were transformed prior to analyses to improve assumptions of normality and additivity for the models to be used. Experiments were grouped that had different responses to egg phosphatidylglycerol using finite mixture regression models and the flexmix package in R (1). This method clusters each experiment by the regression fit between In(CPM) and In(concentration), grouping cultures with similar regression lines in the same cluster. The number of clusters was determined using the Bayesian information criterion (BIC). A mixed model analysis of variance was used, conducted using the Proc Mixed procedure in SAS 9.13, separately for each of the grouped clusters to determine how the different phosphatidylglycerol species affected the relationship between cell proliferation and phosphatidylglycerol concentration. The model used for this analysis of variance included phosphatidylglycerol species as a fixed effect that potentially interacted with In(concentration), and random coefficients for each culture/experiment. The number of experiments segregating into each cluster are indicated and *p<0.05 versus the response to egg phosphatidylglycerol liposomes.
[^3H]Thymidine Incorporation Assays: [^3H]Thymidine incorporation into DNA is measured as described (62).
The effect of providing phosphatidylglycerol directly to keratinocytes in the form of liposomes was examined, since direct provision of phosphatidylglycerol itself should also trigger early differentiation. […] The egg phosphatidylglycerol used in these experiments is composed primarily of the dioleoyl and dipalmitoyl species; therefore, that there is no effect of dipalmitoyl-PP on DNA synthesis was also determined. On the other hand, if phosphatidylglycerol liposomes are applied to keratinocytes with decreased proliferative capacity, presumably as the result of contact inhibition (and as indicated by reduced [3H]thymidine incorporation into DNA under control conditions), DNA synthesis is stimulated in a dose-dependent manner, with a half-maximal effect at a concentration of approximately 35_g/mL and a maximal stimulation at 100 μg/mL.

For experiment [3], the system named is PLD. Particulars: acute stimulation, radiolabeled phosphatidylethanol production; cited from earlier work.
For experiment [4], the system named is transformed human corneal epithelial cells. Description: Scratch wound closure assay in corneal epithelial cells. The format is cell-based. Particulars: 24 hours. On the procedure: SV40-immortalized human corneal epithelial cells were cultured in a 1:1 mixture of defined keratinocyte serum free (dKSF) medium (Gibco) and minimum essential medium (Cellgro) until confluent. A pipet tip was then used to create a scratch wound in the confluent monolayer. Cells were rinsed with PBS to remove unattached and damaged cells and photographed under the microscope. The medium was replaced with dKSF containing the indicated additions (Ca corresponds to 1 mM Ca^2+). Cells were incubated for 24 hours and photographed again. Percent wound closure was calculated as the change in width of the scratch wound compared to the size of the initial wound and was expressed relative to the control (medium with no additions containing 90 μM Ca^2+); *p<0.05; **p<0.01 versus the control (n=3).
FIGS. 8A-8B show the effect of egg phosphatidylglycerol and dioleoylphosphatidylglycerol on wound closure in transformed human corneal epithelial cells. SV40-immortalized human corneal epithelial cells were cultured in a 1:1 mixture of defined keratinocyte serum free (dKSF) medium (Gibco) and minimum essential medium (Cellgro) until confluent. […] Percent wound closure was calculated as the change in width of the scratch wound compared to the size of the initial wound and was expressed relative to the control (medium with no additions); *p<0.05 versus the control (n=3). […]

The test system of experiment [5] is SV40-immortalized human corneal epithelial cells. Kind of experiment: [3H]Thymidine incorporation into DNA in corneal epithelial cells. The format is cell-based. The following applies: 1 mM calcium versus control 90 μM, 24 hours.
Protocol: [^3H]Thymidine incorporation into DNA was then determined. Values represent the means±SEM of 3 separate experiments performed in duplicate; *p<0.05, **p<0.01 versus the control value.
SV40-immortalized human corneal epithelial cells were cultured in a 1:1 mixture of defined keratinocyte serum free (dKSF) medium (Gibco) and minimum essential medium (Cellgro) until approximately 70% confluent. […] [^3H]Thymidine incorporation into DNA was then determined. Values represent the means±SEM of 4 separate experiments performed in duplicate; *p<0.01 versus the control value.
The cells are cultured in defined keratinocyte serum-free (dKSF) medium (Gibco) and passaged following trypsinization from the culture dish.
Experiment [6] concerns keratinocytes. The following applies: concentrations from 0.1 to 1%; cited from earlier work.

For the compound `C=C1/C(=C\C=C2/CCC[C@]3(C)[C@@H]([C@H](C)CCCC(C)(C)O)CC[C@@H]23)C[C@@H](O)C[C@@H]1O` [1,25-dihydroxyvitamin D3], in experiment [1] (250 nM, 24 hours), the “radiolabeled PG formation” value is reported as “a decrease”. With `CCCCCCCC/C=C\CCCCCCCC(=O)O[C@H](COC(=O)CCCCCCCCCCCCCCC)COP(=O)(O)OCC(O)CO` (stereo partly drawn) [Palmitoyl, oleoyl-PG, palmitoyloleoylphosphatidylglycerol], the “promotion of proliferation in slowly dividing keratinocytes” value in experiment [2] is “especially effective proproliferative”.

As for `CCCCCCCCCCCCCC(=O)O[C@@H]1[C@@H](C)[C@@]2(O)[C@@H](C=C(CO)C[C@]3(O)C(=O)C(C)=C[C@@H]23)[C@H]2C(C)(C)[C@]12OC(C)=O` [TPA], the radiolabeled phosphatidylglycerol levels result in experiment [1] (acute stimulation) is on record as “no increase”. Moreover, the PLD activity result in experiment [3] is reported as “activates PLD”. Turning to `CCCCC/C=C\C/C=C\CCCCCCCC(=O)OC[C@H](COP(=O)(O)OCC(O)CO)OC(=O)CCCCCCC/C=C\C/C=C\CCCCC` (stereo partly drawn) [dilinoleoyl-PG], the “inhibition of proliferation in rapidly dividing keratinocytes” value in experiment [2] is recorded as “particularly effective at inhibiting proliferation”. With `CCCCCCCC/C=C\CCCCCCCC(=O)OC[C@H](COP(=O)(O)OCC(O)CO)OC(=O)CCCCCCC/C=C\CCCCCCCC` (stereo partly drawn) [dioleoylphosphatidylglycerol], the “promotion of proliferation in slowly dividing keratinocytes” value in experiment [2] is “especially effective proproliferative”. Besides, the wound closure entry in experiment [4] (50 mg/ml liposomes, relative to control) is on record as “significantly enhanced wound closure”. `CCCCCCCCCCCCCCCC(=O)OC[C@H](COP(=O)(O)OCCC)OC(=O)CCCCCCCCCCCCCCC` [dipalmitoyl-PP]: in experiment [2] (liposomes), the “effect of liposomes on DNA synthesis in highly proliferative keratinocytes” value is given as “no effect”.

Turning to `OCC(O)CO` [glycerol], the “inhibition of DNA synthesis together with elevated extracellular calcium” value in experiment [5] is recorded as “more efficiently inhibit DNA synthesis than either agent alone”. Also, in experiment [4] (0.05% glycerol and calcium (1 mM Ca2+)), the wound closure entry is recorded as “significantly enhanced wound closure”. Besides, the “effect on DNA synthesis ([3H]thymidine incorporation) in keratinocytes” value (from here on “effect on DNA synthesis”) in experiment [6] is listed as “inhibited DNA synthesis”. For the compound `OC[C@@H](O)[C@@H](O)[C@H](O)[C@@H](O)CO` [sorbitol], the “effect on DNA synthesis” value in experiment [6] is “little or no effect”. With `OC[C@@H](O)[C@H](O)[C@@H](O)CO` [xylitol], in experiment [6], the “effect on DNA synthesis” value was “little or no effect”. For Palmitoyl, arachidonyl-PG, the “inhibition of proliferation in rapidly dividing keratinocytes” value in experiment [2] was “particularly effective at inhibiting proliferation”. The same measure, in the same setting: in the case of palmitoyl, linoleoyl-PG it was “particularly effective at inhibiting proliferation”.
